Measured values reported in PMC4965013, “Open Source Drug Discovery with the Malaria Box Compound Collection for Neglected Diseases and Beyond” (PLoS Pathogens, 2016).
Like-named read-outs stand apart in the source and are kept apart here.

Key:
[1] = tested on: bovine Babesia and equine Babesia and Theileria parasites; assay: Babesia and Theileria fluorescence-based assay, all four species; type: cell-based, B. bovis, B. bigemina, T. equi, B. caballi
[2] = tested on: P. falciparum 3D7 trophozoites; assay: Metabolomic fingerprint profiling LC-MS; type: cell-based, Plasmodium falciparum; parameters: UDP-D-glucose / ADP-D-glucose: unit not given here; conditions: for Acetyllysine / N-acetyl-L-ornithine / N-carbamoyl-L-aspartate / NADPH / dAMP / dCMP / dTDP / dTMP / dTTP / dihydroorotate / orotate / DLH / DLS/SDL/SID / PD / PEE / PVNF / 3-phosphoglycerate / ADP-D-glucose / ATP / CDP / D-sedoheptulose-1/7-phosphate / FAD / GMP / NAD+ / NADP+ / Octoluse Bisphosphate / Pyroglutamic acid / UDP-D-glucose / UDP-D-glucuronate / UDP-N-acetyl-glucosamine / UDP / UMP / UTP / a-ketoglutarate / citrate/isocitrate / cytidine / dATP / dGMP/AMP / fumarate / glucose-1/6-phosphate / glycerate / guanine / guanosine / hypoxanthine / indole / inosine / nicotinate / ornithine / phosphoenolpyruvate / pyruvate / ribose-phosphate / sarcosine/alanine / sn-glycerol-3-phosphate / succinate/methylmalonic acid / uridine / xanthosine: S2 Table Metabolomics; for Acetyllysine: metabolite Acetyllysine; for N-acetyl-L-ornithine: metabolite N-acetyl-L-ornithine; for N-carbamoyl-L-aspartate: metabolite N-carbamoyl-L-aspartate; for NADPH: metabolite NADPH; for dAMP: metabolite dAMP; for dCMP: metabolite dCMP; for dTDP: metabolite dTDP; for dTMP: metabolite dTMP; for dTTP: metabolite dTTP; for dihydroorotate: metabolite dihydroorotate; for orotate: metabolite orotate; for DLH: peptide DLH; for DLS/SDL/SID: peptide DLS/SDL/SID; for PD: peptide PD; for PEE: peptide PEE; for PVNF: peptide PVNF; for 3-phosphoglycerate: metabolite 3-phosphoglycerate; for ADP-D-glucose: metabolite ADP-D-glucose; for ATP: metabolite ATP; for CDP: metabolite CDP; for CDP / D-sedoheptulose-1/7-phosphate / GMP / Octoluse Bisphosphate / UDP / UMP / UTP / citrate/isocitrate / dGMP/AMP / fumarate / glucose-1/6-phosphate / glycerate / guanine / guanosine / inosine / pyruvate / sarcosine/alanine / succinate/methylmalonic acid / uridine / xanthosine: change in metabolite level after compound treatment; for D-sedoheptulose-1/7-phosphate: metabolite D-sedoheptulose-1/7-phosphate; for FAD: metabolite FAD; for GMP: metabolite GMP; for NAD+: metabolite NAD+; for NADP+: metabolite NADP+; for Octoluse Bisphosphate: metabolite Octoluse Bisphosphate; for Pyroglutamic acid: metabolite Pyroglutamic acid; for UDP-D-glucose: metabolite UDP-D-glucose; for UDP-D-glucuronate: metabolite UDP-D-glucuronate; for UDP-N-acetyl-glucosamine: metabolite UDP-N-acetyl-glucosamine; for UDP: metabolite UDP; for UMP: metabolite UMP; for UTP: metabolite UTP; for a-ketoglutarate: metabolite a-ketoglutarate; for citrate/isocitrate: metabolite citrate/isocitrate; for cytidine: metabolite cytidine; for dATP: metabolite dATP; for dGMP/AMP: metabolite dGMP/AMP; for fumarate: metabolite fumarate; for glucose-1/6-phosphate: metabolite glucose-1/6-phosphate; for glycerate: metabolite glycerate; for guanine: metabolite guanine; for guanosine: metabolite guanosine; for hypoxanthine: metabolite hypoxanthine; for indole: metabolite indole; for inosine: metabolite inosine; for 2_3-Diphosphoglyceric acid / 4-phosphopantothenate / 6-phospho-D-gluconate / FMN / IMP / Pyrophosphate / Sedoheptoluse bisphosphate / cyclic-AMP / glutathione disulfide / lactate / myo-inositol: metabolite level change after treatment; for nicotinate: metabolite nicotinate; for ornithine: metabolite ornithine; for phosphoenolpyruvate: metabolite phosphoenolpyruvate; for pyruvate: metabolite pyruvate; for ribose-phosphate: metabolite ribose-phosphate; for sarcosine/alanine: metabolite sarcosine/alanine; for sn-glycerol-3-phosphate: metabolite sn-glycerol-3-phosphate; for succinate/methylmalonic acid: metabolite succinate/methylmalonic acid; for uridine: metabolite uridine; for xanthosine: metabolite xanthosine
[3] = tested on: P. falciparum; assay: EC50 listed in S2 Table Metabolomics (used to set the concentration tested); type: cell-based; conditions: Plasmodium falciparum, read-out: EC50_nM

In the case of `COc1ccccc1N=C1C(=O)c2ccccc2C(O)=C1N1CCCCC1` [MMV085203], the “anti-Babesia and anti-Theileria hits, IC50 in words” value [1] is reported as “nanomolar IC50s”, the Acetyllysine [2] is reported as 0.5338 and the N-acetyl-L-ornithine [2] is reported as 0.417. For the same compound, the N-carbamoyl-L-aspartate [2] was -0.03953, the NADPH [2] was 1.905 and the dAMP [2] was 0.2134. The dCMP [2] was -0.3018, the dTDP [2] was 0.1555 and the dTMP [2] was 0.3091. It also gave a dTTP [2] of 0.09879, a dihydroorotate [2] of -0.4435 and an orotate [2] of -0.006229. For the same compound, the DLH [2] was 0.05618, the DLS/SDL/SID [2] was 0.215 and the PD [2] was -0.1394. The PEE [2] was 0.002208, the PVNF [2] was 0.05104 and the 3-phosphoglycerate [2] was 0.03547. For the same compound, the ADP-D-glucose [2] was -0.1308, the ATP [2] was 0.1374 and the CDP [2] was 0.2087. For the same compound, the D-sedoheptulose-1/7-phosphate [2] was 0.1847, the FAD [2] was -0.04298 and the GMP [2] was 0.06518. The “NAD+” value [2] was -0.0924, the “NADP+” value [2] was 0.08883 and the “Octoluse Bisphosphate” value [2] was 0.05889. It also gave a Pyroglutamic acid [2] of 0.3327, a UDP-D-glucose [2] of 0.02335 and a UDP-D-glucuronate [2] of 0.1307. For the same compound, the UDP-N-acetyl-glucosamine [2] was -0.006531, the UDP [2] was 0.1215 and the UMP [2] was -0.1092. The UTP [2] was 0.1112, the a-ketoglutarate [2] was 0.6853 and the citrate/isocitrate [2] was 0.6482. It also gave a cytidine [2] of -0.04401, a dATP [2] of 0.1251 and a dGMP/AMP [2] of 0.1681. For the same compound, the fumarate [2] was 0.1969, the glucose-1/6-phosphate [2] was -0.1808 and the glycerate [2] was 0.6274. For the same compound, the guanine [2] was 0.2252, the guanosine [2] was 0.5678 and the hypoxanthine [2] was 0.8131. For the same compound, the indole [2] was 0.6437, the inosine [2] was 0.2953 and the 2_3-Diphosphoglyceric acid [2] was 0.04377. The 4-phosphopantothenate [2] was 0.03169, the 6-phospho-D-gluconate [2] was 0.09424 and the FMN [2] was -0.0513. It also gave an IMP [2] of 0.06497, a Pyrophosphate [2] of -0.1041 and a Sedoheptoluse bisphosphate [2] of 0.1294. The cyclic-AMP [2] was 0.1643, the glutathione disulfide [2] was -0.1576 and the lactate [2] was 0.4496. It also gave a myo-inositol [2] of 0.5579, a nicotinate [2] of 0.3875 and an ornithine [2] of 0.05264. For the same compound, the phosphoenolpyruvate [2] was 0.005153, the pyruvate [2] was 1.4601 and the ribose-phosphate [2] was 1.0837. It also gave a sarcosine/alanine [2] of 0.0342, a sn-glycerol-3-phosphate [2] of -0.8649 and a succinate/methylmalonic acid [2] of 0.5863. It also gave a uridine [2] of 0.4561 and a xanthosine [2] of 0.5245.
With `CN(C)c1ccc(C(O)(c2ccc(N(C)C)cc2)c2ccc(N(C)C)cc2)cc1` [MMV665941] the “anti-Babesia and anti-Theileria hits, IC50 in words” value [1] was “nanomolar IC50s”, the Acetyllysine [2] was -1.017 and the N-acetyl-L-ornithine [2] was -0.7597. The N-carbamoyl-L-aspartate [2] was -0.9197, the NADPH [2] was 0.7329 and the dAMP [2] was -0.1528. For the same compound, the dCMP [2] was -0.8045, the dTDP [2] was -0.3693 and the dTMP [2] was -0.3724. For the same compound, the dTTP [2] was 0.2892, the dihydroorotate [2] was -0.7761 and the orotate [2] was -0.6971. The DLH [2] was -0.3436, the DLS/SDL/SID [2] was -0.7858 and the PD [2] was -0.9616. The PEE [2] was -0.896, the PVNF [2] was -0.9967 and the 3-phosphoglycerate [2] was -0.2513. For the same compound, the ADP-D-glucose [2] was -0.2022, the ATP [2] was -0.1582 and the CDP [2] was -0.3781. The D-sedoheptulose-1/7-phosphate [2] was -0.2425, the FAD [2] was -0.1824 and the GMP [2] was -1.314. For the same compound, the “NAD+” value [2] was -0.1192, the “NADP+” value [2] was 0.08054 and the “Octoluse Bisphosphate” value [2] was -0.4622. For the same compound, the Pyroglutamic acid [2] was -0.1275, the UDP-D-glucose [2] was -0.08523 and the UDP-D-glucuronate [2] was -0.09688. For the same compound, the UDP-N-acetyl-glucosamine [2] was -0.3177, the UDP [2] was -0.7488 and the UMP [2] was -1.259. It also gave a UTP [2] of -0.2947, an a-ketoglutarate [2] of -0.5688 and a citrate/isocitrate [2] of -0.2269. For the same compound, the cytidine [2] was 0.5361, the dATP [2] was 0.2904 and the dGMP/AMP [2] was -0.7364. It also gave a fumarate [2] of -0.9732, a glucose-1/6-phosphate [2] of -0.5386 and a glycerate [2] of -0.5934. The guanine [2] was -0.3347, the guanosine [2] was -0.8332 and the hypoxanthine [2] was -0.2046. It also gave an indole [2] of -0.2792, an inosine [2] of -0.51 and a 2_3-Diphosphoglyceric acid [2] of -0.09061. The 4-phosphopantothenate [2] was -0.6586, the 6-phospho-D-gluconate [2] was -0.08067 and the FMN [2] was 0.05461. For the same compound, the IMP [2] was -0.2283, the Pyrophosphate [2] was -0.1004 and the Sedoheptoluse bisphosphate [2] was -0.2916. For the same compound, the cyclic-AMP [2] was 0.03248, the glutathione disulfide [2] was -0.3448 and the lactate [2] was -0.6265. The myo-inositol [2] was -1.035, the nicotinate [2] was 0.06813 and the ornithine [2] was -0.116. The phosphoenolpyruvate [2] was -0.1381, the pyruvate [2] was -0.3661 and the ribose-phosphate [2] was -0.3246. For the same compound, the sarcosine/alanine [2] was -0.4581, the sn-glycerol-3-phosphate [2] was -0.06155 and the succinate/methylmalonic acid [2] was -1.567. The uridine [2] was -0.4322, the xanthosine [2] was -0.131 and the EC50 ([3]; EC50 used for Factor_XEC50 in metabolomics) was 255 nM.
In the case of `C[n+]1c2ccccc2nc2ccc(NCCO)cc21` [MMV396693], the “anti-Babesia and anti-Theileria hits, IC50 in words” value [1] is reported as “nanomolar IC50s”, the “mean selectivity indices (SI)” value [1] is reported as “greater than 230” and the IC50 ([1]; Babesia, read-out: IC50s for both bovine Babesia and equine Babesia and Theileria parasites) is reported as 43 to 750 nM. It also gave an Acetyllysine [2] of -0.1505, a N-acetyl-L-ornithine [2] of -0.01449 and a N-carbamoyl-L-aspartate [2] of 0.2036. For the same compound, the NADPH [2] was 1.101, the dAMP [2] was 0.3768 and the dCMP [2] was -0.245. The dTDP [2] was -0.2826, the dTMP [2] was -0.3704 and the dTTP [2] was 0.008069. It also gave a dihydroorotate [2] of 0.3914, an orotate [2] of -0.3502 and a DLH [2] of 0.01259. The DLS/SDL/SID [2] was 0.07661, the PD [2] was 0.009709 and the PEE [2] was -0.05476. It also gave a PVNF [2] of 0.1478, a 3-phosphoglycerate [2] of 0.5809 and an ADP-D-glucose [2] of 0.23. For the same compound, the ATP [2] was 0.04335, the CDP [2] was -0.06362 and the D-sedoheptulose-1/7-phosphate [2] was -0.05616. The FAD [2] was 0.2669, the GMP [2] was 0.08605 and the “NAD+” value [2] was 0.2129. The “NADP+” value [2] was 0.2138, the “Octoluse Bisphosphate” value [2] was 0.3676 and the Pyroglutamic acid [2] was 0.1161. The UDP-D-glucose [2] was 0.1757, the UDP-D-glucuronate [2] was 0.2718 and the UDP-N-acetyl-glucosamine [2] was 0.1832. For the same compound, the UDP [2] was -0.3369, the UMP [2] was -0.448 and the UTP [2] was 0.03764. The a-ketoglutarate [2] was -0.1814, the citrate/isocitrate [2] was 1.401 and the cytidine [2] was 0.9119. It also gave a dATP [2] of 0.0739, a dGMP/AMP [2] of 0.007618 and a fumarate [2] of 0.1883. For the same compound, the glucose-1/6-phosphate [2] was -0.01569, the glycerate [2] was 0.2787 and the guanine [2] was 0.244. For the same compound, the guanosine [2] was 0.1378, the hypoxanthine [2] was 0.1496 and the indole [2] was 0.3367. It also gave an inosine [2] of 0.5603, a 2_3-Diphosphoglyceric acid [2] of 0.305 and a 4-phosphopantothenate [2] of 0.02035. For the same compound, the 6-phospho-D-gluconate [2] was 0.201, the FMN [2] was 0.1776 and the IMP [2] was 0.1162. The Pyrophosphate [2] was 0.4038, the Sedoheptoluse bisphosphate [2] was 0.06738 and the cyclic-AMP [2] was 0.09405. The glutathione disulfide [2] was 0.1827, the lactate [2] was 0.3349 and the myo-inositol [2] was -0.009161. For the same compound, the nicotinate [2] was 0.1527, the ornithine [2] was 0.2843 and the phosphoenolpyruvate [2] was 0.01034. For the same compound, the pyruvate [2] was -0.1004, the ribose-phosphate [2] was 0.7027 and the sarcosine/alanine [2] was 0.6024. For the same compound, the sn-glycerol-3-phosphate [2] was 0.3061, the succinate/methylmalonic acid [2] was 0.6812 and the uridine [2] was 0.1028. The xanthosine [2] was 0.2966 and the EC50 [3] was 296 nM.
